Data reported in patent publication US6946121B2, “Composition in particular cosmetic or dermatological composition, containing oligosaccharides and preparation method and cosmetic treatment method” (Laboratories G Pharm, priority 1999, dated 2005).
Entries after “also recorded” stand apart in the source; their conditions may differ.

Tested on: human basophils
Test: antidegranulating or antiactivating activity on human basophils by flow cytometry (anti-IgE stimulation, CD63 label)
Type: cell-based
Conditions: in vitro, same experimental conditions as the oligosaccharides
Experimental: In order to test the antidegranulating or antiactivating activity of the oligosaccharides on human basophils by flow cytometry, leukocyte suspensions from different individuals selected as being good at responding to anti-IgE were used to isolate the leukocytes, by simple sedimentation at 1 g. These leukocytes are preincubated for 30 minutes with successive dilutions from 10 to 0.01 mg/ml of the test product. The basophils are then stimulated with a target concentration of a human anti-IgE labeled with a mixture of anti-IgE FITC and anti-CD63PE antibodies, CD63 being an activation label for human basophils. The percentages of activation or of inhibition are then calculated by flow cytometry. The biological activity of the oligosaccharides was thus evaluated.
The same biological tests were performed on structural analogs such as raffinose or oligosaccharides comprising an α bond between a galactose unit and another saccharide unit such as in melibiose.
Tests were thus undertaken. […] The percentage of inhibition was calculated by repeating the experiment three times.

SMILES: OC[C@H]1O[C@H](OCC2O[C@@H](O)[C@H](O)[C@@H](O)[C@@H]2O)[C@H](O)[C@@H](O)[C@H]1O (stereo partly shown) [melibiose]
- activity on leukocytes / mastocytes: not active; also recorded: absolutely no activity
